{"source": "patent US10821098B2", "about": "“Treatment using dantrolene” (Lyotropic Therapeutics, Inc., priority 2001, dated 2020)", "key": {"[1]": {"tested_on": "rats subjected to 60 min of CPB", "details": "Ma et al.; cited from earlier work"}, "[2]": {"tested_on": "apoptotic nuclei in the cortex of rats given 5 mg/kg kainic acid", "details": "cited from earlier work"}, "cell culture": {"tested_on": "cell culture", "details": "cited from earlier work"}, "patients": {"tested_on": "patients", "assay": "neurocognitive testing of patients undergoing coronary artery re-vascularization during cardiopulmonary bypass", "type": "in vivo, humans", "details": "1.0 mg/kg of 5% colloidal dantrolene; 24 hours and six weeks post-op", "description": "Prior to surgery, each patient would be given a battery of nine standard tests designed to measure cognitive function in four broad categories; attention and concentration; verbal memory; abstraction and visual orientation; and figure (numbers) memory. Patients would again administered the same tests 24 hours and six weeks post-operatively. Each assessment would be performed by the same investigator who would be blinded to the patient's study group assignment. At the time of the operation, each patient would be induced of general anesthesia according to a protocol utilizing a modified cardiac/narcotic technique. All agents would be administered on a weight based dose (mg/kg) whenever possible. Volatile anesthetic agents would be administered and regulated by the anesthesiologist via the endotracheal tube to maintain adequate blood and pulse pressures both pre and post bypass, and by the perfusionist during bypass to maintain pressures suitable for adequate tissue perfusion. A standardized protocol by which the operation is to be performed would be designed and applied to each patient enrolled in this study. […]"}, "rats": {"tested_on": "rats", "details": "intraperitoneally to rats; cited from earlier work"}, "[3]": {"tested_on": "apoptotic nuclei in the cortex of rats given 5 mg/kg kainic acid", "details": "quotient A/B as defined in the patent", "description": "In the context of this patent, we define “therapeutic index” of a therapeutic drug (or mixture) to be the quotient A/B, where A and B are defined as follows: A is the LD50 (dose yielding 50% lethality) of the drug when given intraperitoneally to rats; and B is the dose of the drug that when given i.p. yields 50% reduction of apoptotic nuclei in the cortex of rats given 5 mg/kg kainic acid, according to the protocol described by Popescu et al. in [J. Cell."}, "dissolution": {"assay": "dissolution", "type": "physicochemical"}, "[4]": {"details": "doses as high as 7.5 mg/kg i.v.; cited from earlier work"}, "[5]": {"tested_on": "rats subjected to 60 min of CPB", "assay": "recovery model of cardiopulmonary bypass (CPB) in the rat", "type": "in vivo", "description": "For example, three groups of rats may be subjected to 60 min of normothermic (37.5 degrees C.) nonpulsatile cardiopulmonary bypass (CPB) using a roller pump and a membrane oxygenator. Group 1 rats (n=10) receive no treatment. Group 2 rats (n=10) are pretreated with low volume dantrolene IV, 2.5 mg/kg, and Group 3 rats (n=10) are pretreated with low volume dantrolene IV, 5.0 mg/kg. A fourth group, (Group 4) serve as sham operated controls (n=10). Neurologic outcome is assessed on days 1, 3, and 12 after CPB using standardized functional testing. Neurocognitive outcome, defined as the time (or latency) to finding a submerged platform in a Morris water maze (an indicator of visual-spatial learning and memory), is evaluated daily from post-CPB days 3-12. […]"}, "solubility in water": {"assay": "solubility in water", "type": "physicochemical"}, "Malignant Hyperthermia": {"tested_on": "Malignant Hyperthermia", "details": "in vivo; cited from earlier work"}, "neuronal cells": {"tested_on": "neuronal cells", "details": "cited from earlier work"}}}
{"smiles": "[Xe]", "note": "[xenon]", "values": [{"measurement": "neuroprotection in the rat CPB model", "setting": "[1]", "result": "protective"}]}
{"smiles": "O=C1CN(/N=C/c2ccc(-c3ccc([N+](=O)[O-])cc3)o2)C(O)=N1", "note": "[dantrolene]", "values": [{"measurement": "dose yielding 50% reduction of apoptotic nuclei in the cortex", "setting": "[2]; i.p., rats given 5 mg/kg kainic acid", "result": 10, "unit": "mg/kg"}, {"measurement": "kainic acid-mediated apoptosis mechanism", "setting": "[2]; rat, in vivo", "result": "inhibits"}, {"measurement": "toxicity induced by NMDA", "setting": "cell culture", "result": "inhibits"}, {"measurement": "toxicity induced by glutamate", "setting": "cell culture", "result": "inhibits"}, {"measurement": "toxicity of quisqualate (QA)", "setting": "cell culture", "result": "inhibited"}, {"measurement": "CPB-induced neurologic and neurocognitive impairment in man", "setting": "patients", "result": "attenuates CPB-induced neurologic and neurocognitive impairment in man"}, {"measurement": "LD50 (dose yielding 50% lethality)", "setting": "rats", "result": 780, "unit": "mg/kg"}, {"measurement": "therapeutic index (LD50 / dose for 50% reduction of apoptotic nuclei)", "setting": "[3]", "result": 78}, {"measurement": "dissolution compared with the sodium salt", "setting": "dissolution; listed as Dantrolene free acid", "result": "slower and less reliable"}, {"measurement": "dissolution compared with the sodium salt", "setting": "dissolution; listed as free acid", "result": "significantly slower and more problematic than that of dantrolene sodium"}, {"measurement": "cardiopulmonary depression", "setting": "[4]", "result": "does not cause cardiopulmonary depression"}, {"measurement": "attenuation of CPB-induced neurologic and neurocognitive dysfunction", "setting": "[5]; 10.0 mg/kg IV 15 min prior to CPB", "result": "comparable to xenon"}, {"measurement": "neurologic and neurocognitive outcome after CPB", "setting": "[5]; pretreatment IV at both 2.5 mg/kg and 5.0 mg/kg, days 1-12", "result": "attenuates CPB associated neurologic and neurocognitive impairment"}]}
{"smiles": "O=C1CN(/N=C/c2ccc(-c3ccc([N+](=O)[O-])cc3)o2)C(O)=N1", "note": "[dantrolene sodium]", "values": [{"measurement": "solubility", "setting": "solubility in water", "result": "< 400", "unit": "µg/mL"}]}
{"smiles": "O=C1CN(/N=C/c2ncc(-c3ccc(Br)cc3)o2)C(=O)N1", "note": "[azumolene]", "values": [{"measurement": "benefit in the treatment of Malignant Hyperthermia (MH)", "setting": "Malignant Hyperthermia", "result": "limited benefit"}]}
{"smiles": "N#Cc1cc2[nH]c(=O)c(=O)[nH]c2cc1[N+](=O)[O-]", "note": "[CNQX]", "values": [{"measurement": "prevention of kainic-induced neurological damage", "setting": "neuronal cells", "result": "prevented"}]}
